{"source": "patent US10363249B2", "about": "“Fatty acid synthase inhibitor for use in the treatment of drug resistant cancer” (3-V Biosciences, Inc., priority 2014, dated 2019)", "key": {"[1]": {"test_system": "BxPC3 AbR (paclitaxel resistant) cells", "assay": "Nab-paclitaxel dose response with fixed FASN inhibitor, CellTiter-Glo viability, BxPC3 AbR", "settings": "for 3-Day IC50 Ratio + Compound 5 / 7-Day IC50 Ratio + Compound 5: BxPC3 AbR", "method": "(§1) For drug treatment, MIA PaCa-2 or BxPC-3 cells were plated in %-well plates in RPMI medium plus 10% FBS. Parental (paclitaxel sensitive) or AbR (paclitaxel resistant) variants of the MIA PaCa-2 or BxPC-3 cell lines were used. […] Serial dilutions of Nab-paclitaxel were prepared in DMSO and further diluted 1:10 in RPMI medium for addition to the assay solution. RPMI-diluted compounds were added to each well 24-hours after cell plating. Assays were done in triplicate for each drug concentration, with cell viability measured at 3 or 7 days after compound addition. The number of viable cells was measured using the CellTiter-Glo assay (Promega) according to the manufactures instructions. Luminosity per well was determined and the signal intensity was analyzed versus drug concentration. For each FASN inhibitor, the concentration of drug resulting in 50% inhibition of the maximum signal was determined, and this value was reported as the IC50."}, "[2]": {"test_system": "BxPC3 Parental (paclitaxel sensitive) cells", "assay": "Nab-paclitaxel dose response with fixed FASN inhibitor, CellTiter-Glo viability, BxPC3 Parental", "method": "as §1"}, "[3]": {"test_system": "MIA PaCa-2 AbR (paclitaxel resistant) cells", "assay": "Nab-paclitaxel dose response with fixed FASN inhibitor, CellTiter-Glo viability, MIA PaCa-2 AbR", "settings": "for 3-Day IC50 Ratio + Compound 5 / 7-Day IC50 Ratio + Compound 5: MIA PaCa-2 AbR", "method": "as §1"}, "[4]": {"test_system": "MIA PaCa-2 Parental (paclitaxel sensitive) cells", "assay": "Nab-paclitaxel dose response with fixed FASN inhibitor, CellTiter-Glo viability, MIA PaCa-2 Parental", "method": "as §1"}}, "note": "Values joined by “and” are separate entries in the source; they are usually repeats but may differ in a detail not shown here. Identical values can stand only once."}
{"compound": "Cc1cc(C)c(-c2[nH]c(C3COC3)nc2C)cc1C(=O)N1CC(c2ccc(C#N)cc2)C1", "note": "[Compound 5]", "values": [{"measurement": "3-Day IC50 Ratio + Compound 5", "setting": "[1]; + Compound 5 0.2 μM", "value": 1.46}, {"measurement": "7-Day IC50 Ratio + Compound 5", "setting": "[1]; + Compound 5 0.2 μM", "value": 1.29}, {"measurement": "3-Day IC50 Ratio + Compound 5", "setting": "[1]; + Compound 5 2.0 μM", "value": 5.57}, {"measurement": "7-Day IC50 Ratio + Compound 5", "setting": "[1]; + Compound 5 2.0 μM", "value": 3.98}, {"measurement": "shift of the BxPC-3 Nab-paclitaxel IC50 value", "setting": "[1]; BxPC-3 paclitaxel resistant (AbR), Compound 5, 3 and 7 days (Table 2)", "value": "4.0 fold and 5.6 fold"}, {"measurement": "3-Day IC50 Ratio + Compound 5", "setting": "[2]; + Compound 5 0.2 μM", "value": 0.92}, {"measurement": "7-Day IC50 Ratio + Compound 5", "setting": "[2]; + Compound 5 0.2 μM", "value": 0.61}, {"measurement": "3-Day IC50 Ratio + Compound 5", "setting": "[2]; + Compound 5 2.0 μM", "value": 0.63}, {"measurement": "7-Day IC50 Ratio + Compound 5", "setting": "[2]; + Compound 5 2.0 μM", "value": 0.63}, {"measurement": "3-Day IC50 Ratio + Compound 5", "setting": "[3]; + Compound 5 0.2 μM", "value": 1.46}, {"measurement": "7-Day IC50 Ratio + Compound 5", "setting": "[3]; + Compound 5 0.2 μM", "value": 1.04}, {"measurement": "3-Day IC50 Ratio + Compound 5", "setting": "[3]; + Compound 5 2.0 μM", "value": 2.73}, {"measurement": "7-Day IC50 Ratio + Compound 5", "setting": "[3]; + Compound 5 2.0 μM", "value": 3.37}, {"measurement": "shift of the MIA PaCa-2 Nab-paclitaxel IC50 value", "setting": "[3]; MIA PaCa-2 paclitaxel resistant (AbR), Compound 5, 3 and 7 days (Table 2)", "value": "2.7 fold and 3.4 fold"}, {"measurement": "3-Day IC50 Ratio + Compound 5", "setting": "[4]; + Compound 5 0.2 μM", "value": 1.18}, {"measurement": "7-Day IC50 Ratio + Compound 5", "setting": "[4]; + Compound 5 0.2 μM", "value": 1.09}, {"measurement": "3-Day IC50 Ratio + Compound 5", "setting": "[4]; + Compound 5 2.0 μM", "value": 1.59}, {"measurement": "7-Day IC50 Ratio + Compound 5", "setting": "[4]; + Compound 5 2.0 μM", "value": 1.88}]}
